Earlier results in the CATMoS acute toxicity set (Mansouri et al. 2021).
Values joined by “and” are separate entries in the source; they are usually repeats but may differ in a detail not shown here. Equal entries are not always repeated. Where a SMILES comes first, the peptide text is derived from it. Bridges are numbered along the chain shown (N, C = ends). [ ]: non-standard residue; d: D form. The star is where a group is joined. Octanoyl(6-Me) = CCC(C)CCCCC(=O)*; Dab = NCC[CH](N)C(=O)O

Assay: rat acute oral toxicity
Conditions: in vivo

**Q.** For `CCCCC(CC)OCCO` (configuration not stated), which LD50 is on record?
**A.** The LD50 was 2280 mg/kg.

**Q.** With `C=S` as the compound, how does the LD50 read?
**A.** Its LD50 is 365 mg/kg.

**Q.** With `CCN(CC)c1ccc(N=O)c(O)c1` as the compound, how does the LD50 read?
**A.** The LD50 was 315 mg/kg.

**Q.** With `CNC(=N)NC(=O)Nc1c(C)cccc1C` as the compound, how does the LD50 read?
**A.** Its LD50 is 187 mg/kg and 184 mg/kg.

**Q.** Which LD50 does the source give for `CCC(C)C(CN(C)C)c1ccc(Cl)cc1Cl` (configuration not stated) here?
**A.** The LD50 was 567 mg/kg.

**Q.** Which LD50 does the source give for `Cc1[nH]c(=O)c(C#N)cc1-c1ccncc1` here?
**A.** Its LD50 is 91 mg/kg.

**Q.** With `c1ccc(-c2nnn[nH]2)cc1` as the compound, how does the LD50 read?
**A.** The LD50 was 1900 mg/kg.

**Q.** For `COc1ccc2c(c1)CCCC2=O`, which LD50 is on record?
**A.** The LD50 was 300 mg/kg.

**Q.** For `CC(=O)c1cccc(Oc2ccccc2)c1`, which LD50 is on record?
**A.** The LD50 was 4160 mg/kg.

**Q.** With `COC(=O)N(CCCl)N=O` as the compound, how does the LD50 read?
**A.** Its LD50 is 20 mg/kg.

**Q.** For `COCCOCCOCCOC(C)=O`, which LD50 is on record?
**A.** The LD50 was 11000 mg/kg.

**Q.** With `CCO[Si](C)(C)OCC` as the compound, how does the LD50 read?
**A.** The LD50 was 9280 mg/kg.

**Q.** With `CCCN(CCC)C(=O)C(Cc1ccc(OCCN(CC)CC)cc1)NC(=O)c1ccccc1` (configuration not stated) as the compound, how does the LD50 read?
**A.** Its LD50 is 800 mg/kg and 1070 mg/kg.

**Q.** For `C=COC(=O)c1ccccc1`, which LD50 is on record?
**A.** Its LD50 is 3250 mg/kg.

**Q.** For `Clc1ccc2ccccc2c1`, which LD50 is on record?
**A.** The LD50 was 2080 mg/kg.

**Q.** For `CC(C=O)CCC(C)(O)C=O` (configuration not stated), which LD50 is on record?
**A.** Its LD50 is 5890 mg/kg.

**Q.** Which LD50 does the source give for `OCCCO` here?
**A.** The LD50 was 15000 mg/kg.

**Q.** Which LD50 does the source give for `Clc1ccc(CSC(Cn2ccnc2)c2ccc(Cl)cc2Cl)cc1` (configuration not stated) here?
**A.** The LD50 was 1740 mg/kg.

**Q.** For `C=CC(=O)NCOCCCC`, which LD50 is on record?
**A.** Its LD50 is 1030 mg/kg.

**Q.** Which LD50 does the source give for `CN1CCC(OC(=O)C2CCc3cc(C4CCCCC4)ccc32)CC1` (configuration not stated) here?
**A.** Its LD50 is 572 mg/kg.

**Q.** With `O=C(O)Cc1ccc(OCC2CC2)c(Cl)c1` as the compound, how does the LD50 read?
**A.** Its LD50 is 895 mg/kg.

**Q.** For `Clc1cc(Cl)c(Cl)c(Cl)c1`, which LD50 is on record?
**A.** The LD50 was 1730 mg/kg.

**Q.** For `Cc1cc(C)c(C)cc1C`, which LD50 is on record?
**A.** The LD50 was 6990 mg/kg.

**Q.** With `CC1NC(=O)c2ccccc2O1` (configuration not stated) as the compound, how does the LD50 read?
**A.** Its LD50 is 1020 mg/kg.

**Q.** Which LD50 does the source give for `CCCC(=O)c1ccc2c(c1)N(CCCN1CCOCC1)c1ccccc1S2` here?
**A.** Its LD50 is 3500 mg/kg.

**Q.** For `S=c1[nH]c2ccc(Cl)cc2[nH]1`, which LD50 is on record?
**A.** Its LD50 is 150 mg/kg.

**Q.** For `Clc1cccc2c1Oc1c(Cl)c(Cl)c(Cl)c(Cl)c1O2`, which LD50 is on record?
**A.** The LD50 was 0.206 mg/kg.

**Q.** Which LD50 does the source give for `CN(C)CCNc1ncnc2ccccc12` here?
**A.** Its LD50 is 670 mg/kg.

**Q.** For `COc1cc(C)c2c(Oc3cccc(C(F)(F)F)c3)c(OC)cc(NC(C)CCCN)c2n1` (configuration not stated), which LD50 is on record?
**A.** Its LD50 is 416 mg/kg.

**Q.** With `OCCOCCN1CCN(CCOC(c2ccccc2)c2ccc(Cl)cc2)CC1` (configuration not stated) as the compound, how does the LD50 read?
**A.** The LD50 was 800 mg/kg.

**Q.** With `CCC(C)CCCCC(=O)NC(CCN)C(=O)NC(C(=O)NC(CCN)C(=O)NC1CCNC(=O)C(C(C)O)NC(=O)C(CCN)NC(=O)C(CCN)NC(=O)C(C(C)O)NC(=O)C(CC(C)C)NC(=O)C(CCN)NC1=O)C(C)O` (configuration not stated) ({Octanoyl(6-Me)}-[Dab]T[Dab][Dab][Dab]LT[Dab][Dab]T; lactam 4-C; configuration not given here) as the compound, how does the LD50 read?
**A.** Its LD50 is 910 mg/kg.

**Q.** With `CC(=NO)C(C)(O)C#Cc1ccccc1` (configuration not stated) as the compound, how does the LD50 read?
**A.** The LD50 was 3120 mg/kg.

**Q.** Which LD50 does the source give for `CNC(=O)ON=C1SCSC1(C)C` here?
**A.** Its LD50 is 0.67 mg/kg.

**Q.** Which LD50 does the source give for `CC(NN)c1ccccc1` (configuration not stated) here?
**A.** Its LD50 is 458 mg/kg.

**Q.** For `CCC(C)(O)Cc1ccccc1` (configuration not stated), which LD50 is on record?
**A.** Its LD50 is 4000 mg/kg.

**Q.** For `CCOP(=O)(OCC)Oc1ccc2c(C)c(Cl)c(=O)oc2c1`, which LD50 is on record?
**A.** Its LD50 is 10 mg/kg.

**Q.** For `CCC(OC(N)=O)c1ccccc1Cl` (configuration not stated), which LD50 is on record?
**A.** The LD50 was 710 mg/kg.

**Q.** For `CCCCCNCCCCC`, which LD50 is on record?
**A.** The LD50 was 270 mg/kg.

**Q.** For `CCNC(C)Cc1cccc(C(F)(F)F)c1` (configuration not stated), which LD50 is on record?
**A.** The LD50 was 130 mg/kg.

**Q.** Which LD50 does the source give for `CCSC(C)CC1CC(=O)C(/C(CC)=N/OC/C=C/Cl)=C(O)C1` (configuration not stated) here?
**A.** Its LD50 is 1360 mg/kg.

**Q.** With `N#CC(CCN1CCC(C(=O)O)(c2ccccc2)CC1)(c1ccccc1)c1ccccc1` as the compound, how does the LD50 read?
**A.** Its LD50 is 149 mg/kg.

**Q.** With `CNC(=O)Oc1cccc2c1OC(C)(C)C2O` (configuration not stated) as the compound, how does the LD50 read?
**A.** Its LD50 is 18 mg/kg.

**Q.** For `COP(=O)(OC)Oc1ccc([N+](=O)[O-])c(Cl)c1`, which LD50 is on record?
**A.** Its LD50 is 10 mg/kg.

**Q.** Which LD50 does the source give for `O=S(=O)(Cl)c1ccccc1` here?
**A.** The LD50 was 1960 mg/kg.

**Q.** For `CC(C)(C)CC(C)(C)S`, which LD50 is on record?
**A.** The LD50 was 52 mg/kg.

**Q.** Which LD50 does the source give for `CCCCC(C)(C)[C@H](O)C=C[C@H]1[C@H](C)CC(=O)[C@@H]1CC=CCCCC(=O)O` here?
**A.** Its LD50 is 22 mg/kg.

**Q.** For `CCOC(=O)C1CCCCC1`, which LD50 is on record?
**A.** Its LD50 is 3960 mg/kg.

**Q.** With `CCCCCCCCCCCCCCCCCC(=O)OCCCC` as the compound, how does the LD50 read?
**A.** The LD50 was 32000 mg/kg.

**Q.** For `O=C(OCCN1CCCCC1)C(O)(c1ccccc1)c1ccccc1`, which LD50 is on record?
**A.** The LD50 was 1210 mg/kg.

**Q.** With `CN(C)c1ccc(N=Nc2ccccc2)cc1` as the compound, how does the LD50 read?
**A.** The LD50 was 200 mg/kg.

**Q.** Which LD50 does the source give for `CCOC(=S)C=Cc1ccc2c(c1)OCO2` here?
**A.** Its LD50 is 940 mg/kg.

**Q.** For `CN(C/C=C/C#CC(C)(C)C)Cc1cccc2ccccc12`, which LD50 is on record?
**A.** The LD50 was 4000 mg/kg.

**Q.** With `CCN(CC)c1ccccc1` as the compound, how does the LD50 read?
**A.** Its LD50 is 782 mg/kg.

**Q.** Which LD50 does the source give for `O=S1c2ccccc2N(CCCN2CCN(CCO)CC2)c2cc(Cl)ccc21` (configuration not stated) here?
**A.** The LD50 was 1000 mg/kg.

**Q.** With `CC(Cc1ccc(O)cc1)NCC(O)c1cc(O)cc(O)c1` (configuration not stated) as the compound, how does the LD50 read?
**A.** The LD50 was 1600 mg/kg.

**Q.** Which LD50 does the source give for `O=C(c1ccc(O)cc1O)c1ccc(O)cc1O` here?
**A.** The LD50 was 1220 mg/kg.

**Q.** With `CC(=O)OCC=C(C)C` as the compound, how does the LD50 read?
**A.** Its LD50 is 2900 mg/kg.

**Q.** With `CS(=O)(=O)OCCN(CCOS(C)(=O)=O)S(C)(=O)=O` as the compound, how does the LD50 read?
**A.** The LD50 was 300 mg/kg.

**Q.** With `NC(=O)C(O)(c1ccccc1)c1ccccc1` as the compound, how does the LD50 read?
**A.** Its LD50 is 1550 mg/kg.

**Q.** For `CC1(c2ccccc2)OC(C(=O)O)=CC1=O` (configuration not stated), which LD50 is on record?
**A.** The LD50 was 3000 mg/kg.

**Q.** Which LD50 does the source give for `CC(C)OC(=O)C=CC(=O)OC(C)C` here?
**A.** Its LD50 is 2140 mg/kg and 3250 mg/kg.

**Q.** Which LD50 does the source give for `COc1ccc2cc([C@H](C)C(=O)OCCN3CCN(Cc4ccc(N)cc4)CC3)ccc2c1` here?
**A.** Its LD50 is 1600 mg/kg.

**Q.** With `Cc1cnccn1` as the compound, how does the LD50 read?
**A.** Its LD50 is 1800 mg/kg.

**Q.** With `CCOc1cc(C=O)ccc1O` as the compound, how does the LD50 read?
**A.** The LD50 was 1590 mg/kg.

**Q.** Which LD50 does the source give for `CNC(=O)Oc1ccc(NC(C)=O)cc1` here?
**A.** The LD50 was 794 mg/kg.

**Q.** With `CC1N(c2ccccc2)C(=O)c2ccccc2N1C(=O)CN1CCOCC1` (configuration not stated) as the compound, how does the LD50 read?
**A.** Its LD50 is 1710 mg/kg.

**Q.** Which LD50 does the source give for `Nc1ccccc1-c1ccccc1` here?
**A.** The LD50 was 2340 mg/kg.

**Q.** For `O=C(O)c1cccc(Cl)c1Cl`, which LD50 is on record?
**A.** Its LD50 is 300 mg/kg.

**Q.** For `CCC(=O)OC1CCC(N2CCCCC2)CC1` (configuration not stated), which LD50 is on record?
**A.** Its LD50 is 1980 mg/kg.

**Q.** With `c1ccc(Oc2nncc3ccccc23)cc1` as the compound, how does the LD50 read?
**A.** Its LD50 is 1000 mg/kg.

**Q.** Which LD50 does the source give for `Nc1ccc(S(=O)(=O)Nc2ccc(NC(=O)CCC(=O)O)cc2)cc1` here?
**A.** The LD50 was 1500 mg/kg.

**Q.** For `CCOP(=S)(OCC)SC(CC(=O)OCSC)C(=O)OCSC` (configuration not stated), which LD50 is on record?
**A.** Its LD50 is 3.7 mg/kg.
